Six molecules from US20060099220A1, “Antibodies against and methods for producing vaccines for respiratory syncytial virus” (MEDIMMUNE, INC., priority 2004, published 2006) can be followed below.

In one test the target is Numax™ (MEDI-524) (Homo sapiens, UniProt P01834+P01857). The test can be described thus: Binding ELISA of F-peptides. The settings on record: peptide coated on plate, MEDI-524 detected with anti-human IgG-HRP. As to the method: Based in part upon the results of the MARM analysis above, F peptides were synthesized (done by AnaSpec, Inc. San Jose, Calif.). Each well of the assay plate was coated with […] of […] of a particular soluble RSV F-Peptide overnight at 2-8° C. After the plate was aspirated and washed with PBS/0.05% Tween-20 buffer, it was blocked by incubating with PBS/0.05% Tween-20/0.5% BSA buffer for one hour at ambient temperature. The plate was washed and MEDI-524 standard curve samples, test samples, MEDI-524 Reference Standard, and negative control were added to the washed plate. Following a one-hour incubation at ambient temperature, the plate was washed, and […] of a goat anti-human IgG-HRP (horseradish peroxidase) at 1:16,000 dilution was added to the plate. After washing, […] of 3,3′,5,5′-tetramethylbenzidine (TMB) substrate was then added to the plate and incubated at ambient temperature protected from light for 10 minutes. The enzymatic reaction was stopped by adding […] of 2N H2SO4, and the absorbance at 450 nm was measured using a microplate reader. […] After meeting all system suitability requirements, as well as meeting the criteria of the parallelism test, the ED50 ratio of the test sample to Reference Standard was calculated, and the results were expressed as a percentage of the Reference Standard binding activity. […]
A general note: ELISA stands for enzyme-linked immunosorbent assay.

The target in a further test is Numax™ (Homo sapiens, UniProt P01834+P01857). As to the kind of experiment: Biacore kinetic analysis of F peptides on captured Numax™. Type of test: binding. As to conditions: F peptide 100 nM over captured Numax™, Biacore 3000. The method, then:
All studies were performed using Sensor Chip CM5 (Biacore AB, Uppsala, Sweden) which contains a carboxymethyl (CM) dextran matrix and a Biacore® 3000 surface plasmon resonance (SPR) biosensor (Biacore AB, Uppsala, Sweden).
Numax™ was captured via a high-affinity interaction between the Fc portion of Numax™ and a goat anti-human IgG(Fc) (KPL, Inc., Gaithersburg, Md.). Goat anti-human IgG(Fc) was covalently attached to the CM dextran matrix using amine coupling chemistry. Two anti-human IgG(Fc)-specific surfaces were created. Numax™ was diluted to 10.9 μg/mL with HBS-EP and flowed for 1 min. across one of the anti-human IgG (Fc) surfaces at a flow rate of 5 μL/min. The other anti-human IgG(Fc) surface was used as a reference surface. F peptide was prepared by dilution in HBS-EP (0.01 M Hepes pH 7.4, 0.15 M NaCl, 3 mM EDTA, 0.005% surfactant P20) to a final concentration of 100 nM. F peptide was injected for 1 min. in a serial-flow manner across the reference surface and the Numax™-specific surface. Dissociation of bound F peptide was monitored for 2 min in the presence of HBS-EP. After this dissociation period, Numax™ and F peptide were removed with a 30-sec injection of 10 mM glycine pH 1.7 (Biacore AB, Uppsala, Sweden). Because of the removal of Numax™, it was necessary to create a new Numax™-specific surface prior to the injection of each F peptide.
A general note: SPR reads the build-up and loss of mass on a sensor chip optically.

The next test addresses T1, MEDI-524 Fab (Homo sapiens, UniProt P01834+P01857).
T1 construct: 0.088 mg/mL (1.88 μM-46.3 KDa) of MEDI-524 Fab
The test can be described thus: Isothermal titration calorimetry (ITC) of F peptides with MEDI-524 Fab. The settings on record: at 18° C., 25 mM His, pH 6.07. Type of test: binding. As to the method:
For this set of experiments, […] (1.16 μM-148.4 KDa) of MEDI-524 Mab and 0.088 mg/mL (1.88 μM-46.3 KDa) of MEDI-524 Fab, both in 25 mM His, pH 6.07 were used. On the other hand, 250 μL of 1 mg/mL of the different peptides dissolved in H2O, were provided by ABC. The peptides were then diluted into the appropriate volume of buffer to give a final concentration of 50 μM. The ITC experiments were run at 18° C. with the macromolecule (Mab or Fab) in the cell, by doing ˜26 injections of 10 μL of peptides, spaced 360 sec with constant stirring. The data fitting was accomplished by subtracting the average value of the few last injections as the buffer and unspecific heat of dilution contributions. […] A note apart is the fact that the observed binding capacity (N) increases with the length of the peptide, indicating possibly an extra conformational factor in the binding event. The entropic contribution: For the peptides SEQ ID NOs.24 and 26, the entropic factor seems to be similar; the extra amino acids at the end of the N-terminal seems not to affect greatly the binding parameters. On the other hand, the elongation at the C-terminal seems to decrease slightly the binding enthalpy, the binding constant, as well as the entropic factor. […] The binding constant seems to be smaller (weaker) for both 30-mer peptides respect to the 26-mer.
For orientation: ITC needs no label: the signal is the heat of the interaction.

The test system of the next test is MEDI-524 Mab. As to the kind of experiment: Isothermal titration calorimetry (ITC) of F peptides with MEDI-524 Mab. Type of test: binding. The settings on record: 25 mM His, pH 6 at 10° C. The method, then: To evaluate the binding properties of the wild-type peptide (SEQ ID NO.28) to Numax™/MEDI-524 by using the ITC technique. The MEDI-524 Mab was titrated with SEQ ID NO.28 in the basis buffer 25 mM His, pH 6 at 10° C. SEQ ID NO.28: (MW=2732.14, no W, Y, or C). A working solution of 55 μM was prepared by diluting 30 μL of a 5 mg/mL peptide solution with 970 μL of 25 mM His, pH 6 buffer to be used for the ITC titrations. A 1.15 μM (0.1706 mg/ml) working solution of MEDI-524 was used for the experiments (MW 148400, A280=1.47).
For this set of experiments, […] (1.16 μM-148.4 KDa) of MEDI-524 Mab and 0.088 mg/mL (1.88 μM-46.3 KDa) of MEDI-524 Fab, both in 25 mM His, pH 6.07 were used. On the other hand, 250 μL of 1 mg/mL of the different peptides dissolved in H2O, were provided by ABC. The peptides were then diluted into the appropriate volume of buffer to give a final concentration of 50 μM. The ITC experiments were run at 18° C. with the macromolecule (Mab or Fab) in the cell, by doing ˜26 injections of 10 μL of peptides, spaced 360 sec with constant stirring. The data fitting was accomplished by subtracting the average value of the few last injections as the buffer and unspecific heat of dilution contributions. […]

Test [1] concerns RSV MARM B2 (F protein K272M). As to the kind of experiment: Microneutralization assay of MARM B2. As to conditions: selection Synagis ®.
Test [2] relates to RSV MARM B7 (F protein K272T). The test can be described thus: Microneutralization assay of MARM B7. As to conditions: selection Synagis ®.
Test [3] deals with RSV MARM B9 (F protein K272Q). The test can be described thus: Microneutralization assay of MARM B9. As to conditions: selection Synagis ®.
The subject of test [4] is RSV MARM #13 (F protein N262K, K272Q). The test can be described thus: Microneutralization assay of MARM #13. The settings on record: MARM #13, N262K and K272Q, selection Synagis ® then A4b4.
The test system of test [5] is RSV MARM #10 (F protein K272E, N276Y). The test can be described thus: Microneutralization assay of MARM #10. As to conditions: MARM #10, K272E and N276Y, selection A4b4.
Test [6] relates to RSV MARMs #6 and NuMARM3 (F protein K272E). As to the kind of experiment: Microneutralization assay of K272E MARMs. The settings on record: for Neutralization of RSV: residue 272 altered from lysine (K) to glutamic acid (E).
Test [7] concerns RSV MARM B1 (F protein K272N). As to the kind of experiment: Microneutralization assay of monoclonal antibody resistant mutant (MARM) B1. The settings on record: selection Synagis ®.
Another test concerns the target RSV F protein. As to the kind of experiment: BIAcore analysis of Numax Ref. Std. Type of test: binding. As to conditions: Numax reference standard. An excerpt: BIAcore analysis can measure the kinetic interactions of anti-RSV antibodies with RSV F peptides by surface plasmon resonance using a BIAcore 1000, 2000, or 3000 instrument (Biacore, Uppsala, Sweden). Purified recombinant, C-terminally truncated F protein was covalently coupled to a (1-ethyl-3-[3-dimethylaminopropyl]carbodiimide hydrochloride)/N-hydroxysuccinimide-activated CM5 sensor chip at a low protein density (see Johnsson et al. (1991) Anal. Biochem. 198, 268-277). The unreacted active ester groups were blocked with 1 M ethanolamine. For use as a reference, when the BIAcore 2000 or 3000 instrument was used, a blank surface, containing no antigen, was prepared under identical immobilization conditions. To minimize binding variations caused by different lots of F proteins, most of the antibodies were measured against the same lot of F protein. In several cases when different lots of F proteins were used, their binding to an anti-RSV antibody was used as a reference to make sure that these lots had similar binding characteristics to the lot that is used mainly. A serial 2-fold dilution series of purified antibodies, ranging from 0.2 to 100 nm in HBS/Tween 20 buffer (BIAcore), was injected over the F-protein and reference cell surfaces, which were connected in series. In each measurement, the residual antibody was removed from the sensor chip by a brief pulse of 100 mM HCl. The binding curves were globally fitted to a 1:1 Langmuir binding model using the BIAevaluation program. This algorithm calculates both kon and koff. The apparent equilibrium dissociation constant, Kd, was deduced as the ratio of the two rate constants, koff/kon.

Test [8] deals with RSV with F protein mutations at position 272 other than K272E. As to the kind of experiment: Microneutralization assay of MARMs, other mutations at position 272. The settings on record: all other mutations indicated at position 272.
Where [9] appears, read: MARM NuMARM3, K272E, selection Numax ™.

“And” between values parts separate entries of the source, which are not always exact repeats. Equal values may be shown once. Where no end group is shown, it is not given here.

Chain of Numax™ (P01857 with tags, fused parts or gaps limits assumed, other chains not shown): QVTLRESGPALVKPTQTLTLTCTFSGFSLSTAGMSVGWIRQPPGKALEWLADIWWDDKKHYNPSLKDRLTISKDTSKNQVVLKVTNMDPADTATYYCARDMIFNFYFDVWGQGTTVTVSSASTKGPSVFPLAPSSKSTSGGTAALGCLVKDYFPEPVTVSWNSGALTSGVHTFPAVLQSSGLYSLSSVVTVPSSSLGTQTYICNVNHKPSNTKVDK
T1 sequence (P01857 with tags, fused parts or gaps limits assumed, other chains not shown): as above
Chain of Numax™ (MEDI-524) (P01857 with tags, fused parts or gaps limits assumed, other chains not shown): as above

With “F peptide with a histidine at position 262: F peptide with histidine at position 262 tested in the Numax binding ELISA; probably SEQ ID No. 13 (NSELLSLIHDMPITNDQKKLMSNN; Derived from respiratory syncytial virus sequence)”, the “Binding to Numax™ compared with wild-type F protein epitope (SEQ ID NO.1)” value in the test with Numax™ (MEDI-524) is recorded as “more tightly”.

For the molecule “NSELLSLIHDMPITNDQKKLMSNNVQIVRQ-NH2 (C-terminus assumed) [SEQ ID NO: 25]”, at Numax™, the ka was 2.50E+05 and 3.62E+05; the kd is 1.81E−03 and 1.97E−03; the Kd was 7.23 nM and 5.44 nM. On MEDI-524 Fab, the “Ka (association constant)” value is 6.5e+06 M⁻¹, the ΔHbinding was -10.4 kcal/mol and the ΔSbinding is listed as −4.7.

For the molecule “NSELLSLINDMPITNDQKKLMSNN-NH2 [SEQ ID NO.28]”, in the test on MEDI-524 Mab, the “binding strength compared to the SEQ ID NO.24 peptide” value is listed as ~3 orders of magnitude lower.

At Numax™, “STYMLTNSELLSLIHDMPITNDQKKLMSNN-NH2 (C-terminus assumed) [SEQ ID NO: 26]” returned a ka of 2.43E+05, a kd of 5.52E−03 and a Kd of 22.7 nM. In addition, at MEDI-524 Fab, the “Ka (association constant)” value is 7.1e+06 M⁻¹, the ΔHbinding was -11.4 kcal/mol and the ΔSbinding is −8.1.

For the molecule “Synagis ®: humanized RSV monoclonal antibody directed against the F glycoprotein of RSV [reference compound]”, the “Neutraliz by antibody ?” value in test [1] is “No”; in [2], “No”; in test [3] it was “No”; in test [4], “No”; in test [4] (listed as Synagis®) it was “lost their ability to neutralize”; in test [5], “No”. The “Neutraliz by antibody ?” value is given as “No” in test [6] (MARM #6, K272E, selection A4b4); “No” in [6] (setting [9]); “No” in [7]. Also, in test [6], the “Neutralization of RSV” value is “longer neutralized RSV”.

B1: Numax ™: enhanced potency RSV-specific monoclonal antibody derived by in vitro affinity maturation of palivizumab (antibody, listed as Chimaera sp., V domains shown)
VH: QVTLRESGPALVKPTQTLTLTCTFSGFSLSTAGMSVGWIRQPPGKALEWLADIWWDDKKHYNPSLKDRLTISKDTSKNQVVLKVTNMDPADTATYYCARDMIFNFYFDVWGQGTTVTVSS
VL: DIQMTQSPSTLSASVGDRVTITCSASSRVGYMHWYQQKPGKAPKLLIYDTFFLDSGVPSRFSGSGSGTEFTLTISSLQPDDFATYYCFQGSGYPFTFGGGTKVEIK
In turn, B1 yielded a dissociation constant Kd at RSV F protein of 0.004 nM. The same molecule yielded a ka in the test with RSV F protein of 4.70E+05. For the same molecule, the kd on RSV F protein is reported as 1.88E−06. Also, the “Neutraliz by antibody ?” value in test [1] is recorded as “Yes”; in [2] it was “Yes”; in test [3], “Yes”; in test [3] (listed as Numax™) it was “did not knock out Numax™ neutralization”; in test [4] it was “No”; in [4] (listed as Numax™), “lost their ability to neutralize”. The “Neutraliz by antibody ?” value in test [5] is listed as “No”; in test [6] (MARM #6, K272E, selection A4b4), “No”; in test [6] (setting [9]), “No”; in test [7], “Yes”. Further, in test [6], the “Neutralization of RSV” value is recorded as “longer neutralized RSV”. Besides, the “Ability to neutralize RSV” value in [8] is on record as “retain its ability to neutralize”.

In general, Kd refers to a measure of binding affinity in units of concentration.
